These results are taken from US12514853B2, “Therapeutic dendrimer” (Starpharma Pty Ltd, priority 2018, dated 2026).

As usually defined, the GI50 is the concentration giving 50% growth inhibition. Read a high GI50 as less potent growth inhibition.

Each structure is given as a SMILES string.

For series [1] the following is noted: patients to which irinotecan is administered; cited from earlier work.
Series [2] relates to HT-29 (human colon carcinoma cell line) xenograft. The series is described as follows: Efficacy in HT-29 xenograft model in mice. In kind it is in vivo, Balb/c nude mice. Particulars: day 36, vs vehicle; irinotecan 90 mg/kg, 2f 15, 2i 15, 2h 25 mg/kg IV.
The conditions of series [3]: 100 mg/kg irinotecan.
For series [4], the system named is HT-29 (human colon carcinoma cell line) xenograft. The series is described as follows: Efficacy alone or in combination with olaparib in HT-29 xenograft model in mice. The class given is in vivo, Balb/c nude mice. The protocol: Olaparib solid powder obtained from MedChemExpress was solubilised in DMSO and an oral formulation was prepared at a final concentration of 5 mg/ml in 10% DMSO: 15% (2-Hydroxypropyl)-β-cyclodextrin in sterile water.
The endpoint for the analysis was a tumour volume of 1200 mm^3.
Statistical analysis of tumour growth was performed on day 28 when the first study animals reached endpoint criteria for tumour burden.

Series [5] concerns SW620 (human colon carcinoma cell line) xenograft. The series is described as follows: Efficacy in SW620 xenograft model in mice. The following applies: irinotecan 90 mg/kg, 2f 15, 2i 15, 2h 25, 2a 25 mg/kg IV days 1, 8, 15; study to day 119.
The test system of series [6] is HT-29 cells (human colon cancer cell line). The series is described as follows: In-vitro anti-cancer drug screening, cell counting (SRB) assay. The class given is cell-based. The following applies: Homo sapiens, concentration required to inhibit net cell growth by 50%. On the procedure:
A study was carried out to determine the ability of example dendrimers to inhibit growth of HT-29 cells (human colon cancer cell line) using a cell counting (SRB) assay.

For series [7], the system named is MDA-MB-231 (human breast carcinoma cell line) xenograft. The series is described as follows: Efficacy in MDA-MB-231 xenograft model in mice. In kind it is in vivo, Balb/c nude mice. The following applies: irinotecan 90 mg/kg, 2f 15, 2h 25 mg/kg IV once weekly for three weeks.

With `CCc1c2c(nc3ccc(OC(=O)N4CCC(N5CCCCC5)CC4)cc13)-c1cc3c(c(=O)n1C2)COC(=O)[C@]3(O)CC` [Irinotecan, reference compound], the “patients with early symptoms of gastrointestinal toxicity (diarrhea, emesis, diaphoresis, abdominal cramping)” value in series [1] was “up to 80%”. The Tumour growth inhibited in series [2] is 23%. The signs of toxicity result in series [3] is “pale extremities and lethargy”. The “Percent TGI” value in series [4] (day 28, olaparib 50 mg/kg orally 5 days on/2 days off for 3 weeks, irinotecan 80 mg/kg IV days 1, 8, 15) was 33%. The “effect on HT-29 tumour growth (in words)” value in series [4] (olaparib 50 mg/kg orally, irinotecan 80 mg/kg IV, their combination, 2f 5 and 8 mg/kg IV) is recorded as “moderate effect on tumour growth”. In series [5], the “effect on SW620 tumour growth” value is given as “delay of tumour growth with the exception of one tumour, which completely regressed after day 25”. Also, the concentration for 50% growth inhibition (GI50) in series [6] was found to be 7 µM. Besides, the “effect on MDA-MB-231 tumour growth” value in series [7] is given as “continued to grow during drug treatment”.
